Values belong to the compound of their own block, whether it stands above or below them.
Biological target: T1, ruthenylated Vitamin D-binding protein conjugate (Homo sapiens, UniProt P02774)
T1 sequence (P02774 17-474): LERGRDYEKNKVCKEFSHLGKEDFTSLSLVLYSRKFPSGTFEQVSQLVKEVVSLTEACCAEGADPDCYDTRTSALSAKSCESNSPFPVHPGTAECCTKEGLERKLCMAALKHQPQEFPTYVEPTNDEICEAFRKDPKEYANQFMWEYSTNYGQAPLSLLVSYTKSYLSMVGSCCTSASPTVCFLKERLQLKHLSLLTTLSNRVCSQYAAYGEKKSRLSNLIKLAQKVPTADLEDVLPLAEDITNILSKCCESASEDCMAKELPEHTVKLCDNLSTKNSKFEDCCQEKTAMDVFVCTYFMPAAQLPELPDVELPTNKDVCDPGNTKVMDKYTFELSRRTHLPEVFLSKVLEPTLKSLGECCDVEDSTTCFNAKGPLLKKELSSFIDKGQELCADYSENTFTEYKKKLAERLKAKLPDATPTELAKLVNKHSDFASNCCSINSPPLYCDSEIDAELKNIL
Assay: Elecsys Vitamin D total immunoassay, dilution series in Diluent Universal, without or with blocking reagent

B/B0 (24 nmoL/L, Reference, without blocking reagent): 67%
B/B0 (24 nmoL/L, with mAb<24,25(OH)2VitD3> 0.075 mg/mL in R1): 95%
B/B0 (48 nmoL/L, Reference, without blocking reagent): 53%
B/B0 (48 nmoL/L, with mAb<24,25(OH)2VitD3> 0.075 mg/mL in R1): 92%
B/B0 (72 nmoL/L, Reference, without blocking reagent): 37%
B/B0 (72 nmoL/L, with mAb<24,25(OH)2VitD3> 0.075 mg/mL in R1): 91%
B/B0 (96 nmoL/L, Reference, without blocking reagent): 32%
B/B0 (96 nmoL/L, with mAb<24,25(OH)2VitD3> 0.075 mg/mL in R1): 91%
B/B0 (120 nmoL/L, Reference, without blocking reagent): 26%
B/B0 (120 nmoL/L, with mAb<24,25(OH)2VitD3> 0.075 mg/mL in R1): 88%
B/B0 (144 nmoL/L, Reference, without blocking reagent): 25%
B/B0 (144 nmoL/L, with mAb<24,25(OH)2VitD3> 0.075 mg/mL in R1): 88%
B/B0 (192 nmoL/L, Reference, without blocking reagent): 21%
B/B0 (192 nmoL/L, with mAb<24,25(OH)2VitD3> 0.075 mg/mL in R1): 86%
B/B0 (240 nmoL/L, Reference, without blocking reagent): 18%
B/B0 (240 nmoL/L, with mAb<24,25(OH)2VitD3> 0.075 mg/mL in R1): 82%
B/B0 (288 nmoL/L, Reference, without blocking reagent): 15%
B/B0 (288 nmoL/L, with mAb<24,25(OH)2VitD3> 0.075 mg/mL in R1): 76%
B/B0 (360 nmoL/L, Reference, without blocking reagent): 13%
B/B0 (360 nmoL/L, with mAb<24,25(OH)2VitD3> 0.075 mg/mL in R1): 74%
B/B0 (480 nmoL/L, Reference, without blocking reagent): 11%
B/B0 (480 nmoL/L, with mAb<24,25(OH)2VitD3> 0.075 mg/mL in R1): 66%
cross-reactivity of the reference immunoassay (without blocking reagent): showed cross-reactivity
SMILES: C=C1CC[C@H](O)C/C1=C/C=C1\CCC[C@@]2(C)C1CC[C@@H]2[C@H](C)CCC(O)C(C)(C)O (stereo partly shown) [24,25(OH)2VitD3, 24,25-dihydroxyvitamin D3]

SMILES: C=C1CC[C@H](O)C/C1=C/C=C1\CCC[C@]2(C)[C@@H]([C@H](C)CCCC(C)(C)O)CC[C@@H]12 [25(OH)VitD3, 25-hydroxyvitamin D3]
B/B0 (25 nmoL/L, Reference, without blocking reagent): 81%
B/B0 (25 nmoL/L, with mAb<24,25(OH)2VitD3> 0.075 mg/mL in R1): 77%
B/B0 (50 nmoL/L, Reference, without blocking reagent): 59%
B/B0 (50 nmoL/L, with mAb<24,25(OH)2VitD3> 0.075 mg/mL in R1): 63%
B/B0 (75 nmoL/L, Reference, without blocking reagent): 44%
B/B0 (75 nmoL/L, with mAb<24,25(OH)2VitD3> 0.075 mg/mL in R1): 49%
B/B0 (100 nmoL/L, Reference, without blocking reagent): 37%
B/B0 (100 nmoL/L, with mAb<24,25(OH)2VitD3> 0.075 mg/mL in R1): 42%
B/B0 (125 nmoL/L, Reference, without blocking reagent): 30%
B/B0 (125 nmoL/L, with mAb<24,25(OH)2VitD3> 0.075 mg/mL in R1): 33%
B/B0 (150 nmoL/L, Reference, without blocking reagent): 27%
B/B0 (150 nmoL/L, with mAb<24,25(OH)2VitD3> 0.075 mg/mL in R1): 30%
B/B0 (200 nmoL/L, Reference, without blocking reagent): 22%
B/B0 (200 nmoL/L, with mAb<24,25(OH)2VitD3> 0.075 mg/mL in R1): 23%
B/B0 (250 nmoL/L, Reference, without blocking reagent): 18%
B/B0 (250 nmoL/L, with mAb<24,25(OH)2VitD3> 0.075 mg/mL in R1): 18%
B/B0 (300 nmoL/L, Reference, without blocking reagent): 16%
B/B0 (300 nmoL/L, with mAb<24,25(OH)2VitD3> 0.075 mg/mL in R1): 15%
B/B0 (374 nmoL/L, Reference, without blocking reagent): 14%
B/B0 (374 nmoL/L, with mAb<24,25(OH)2VitD3> 0.075 mg/mL in R1): 13%
B/B0 (499 nmoL/L, Reference, without blocking reagent): 11%
B/B0 (499 nmoL/L, with mAb<24,25(OH)2VitD3> 0.075 mg/mL in R1): 10%
cross-reactivity of the reference immunoassay (without blocking reagent): showed cross-reactivity

Source: patent publication US11415576B2, “Method for measurement of vitamin D” (Roche Diagnostics Operations, Inc., priority 2014, dated 2022)
